Usually IC50 stands for the point on the concentration scale where inhibition reaches its midpoint.

The first assay concerns SREBP pathway. The assay is described as follows: SREBP luciferase reporter gene system (SRE-luciferase assay). The assay is classed as cell-based, human. The following applies: Homo sapiens, Huh-7, 16 h, Huh-7/SRE-luc cells, sterol-deficient medium, 0.01-10 µM. In outline:
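Readout was SRE-driven luciferase normalised to GFP fluorescence in lysates of stably transfected Huh-7/SRE-luc hepatoma cells. Compounds (0.01, 0.03, 0.1, 0.3, 1.0, 3.0, 10 µM; DMSO control) were applied for 16 h in sterol-depleted medium with 2 µM lovastatin and 10 µM mevalonate; IC50 from variable-slope fit.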
For orientation: In a reporter assay the amount or activity of a reporter protein is the signal.
On to `COc1ncncc1C(O)CCC[C@@H](C)[C@H]1CC[C@H]2[C@H]3[C@H](CC[C@]12C)[C@@]1(C)CC[C@H](O)[C@H](O)[C@@H]1CC3(F)F` (stereo partly drawn) [Compound 152, (1R,3aS,3bS,5aR,6R,7S,9aR,9bS,11aR)-4,4-difluoro-1-[(2R)-6-hydroxy-6-(4-methoxypyrimidin-5-yl)hexan-2-yl]-9a,11a-dimethylhexadecahydro-1H-cyclopenta[1,2-a]phenanthrene-6,7-diol], for which the 50% inhibitory concentration (IC50) was determined as 0.14 µM.
As to `COc1ccnc(C[C@H](O)CCC[C@@H](C)[C@H]2CC[C@H]3[C@H]4[C@H](CC[C@]23C)[C@@]2(C)CC[C@H](O)[C@H](O)[C@@H]2CC4(F)F)c1` (stereo in doubt) [Compound 305, (1R,3aS,3bS,5aR,6R,7S,9aR,9bS,11aR)-4,4-difluoro-1-[(2R,6R)-6-hydroxy-7-(4-methoxypyridin-2-yl)heptan-2-yl]-9a,11a-dimethylhexadecahydro-1H-cyclopenta[1,2-a]phenanthrene-6,7-diol], the concentration for half-maximal inhibition (IC50) amounted to 0.253 µM.
Still for that read-out and setting: the value for `COc1cccc(OC)c1C(O)CCC[C@@H](C)[C@H]1CC[C@H]2[C@H]3[C@H](CC[C@]12C)[C@@]1(C)CC[C@H](O)[C@H](O)[C@@H]1CC3(F)F` (stereo partly drawn) [Compound 116, (1R,3aS,3bS,5aR,6R,7S,9aR,9bS,11aR)-1-[(2R)-6-(2,6-dimethoxyphenyl)-6-hydroxyhexan-2-yl]-4,4-difluoro-9a,11a-dimethylhexadecahydro-1H-cyclopenta[1,2-a]phenanthrene-6,7-diol] was 0.177 µM; that for `COc1nc(F)cc(F)c1[C@H](O)CCC[C@@H](C)[C@H]1CC[C@H]2[C@H]3[C@H](CC[C@]12C)[C@@]1(C)CC[C@H](O)[C@H](O)[C@@H]1CC3(F)F` (single isomer, unassigned) [Compound 256] was 0.099 µM.
On the same count and under the same terms, the value for `C[C@H](CCC(=O)N(C)c1ccccc1F)[C@H]1CC[C@H]2[C@@H]3CC[C@H]4[C@@H](O)[C@@H](O)CC[C@]4(C)[C@H]3CC[C@]12C` [Compound 47, (3S,4R,5R,8S,9S,10R,13R,14S,17R,20R)-N-(2-fluorophenyl)-3,4-dihydroxy-N-methyl-5α-cholan-24-amide] was 0.05 µM; that for `COc1cc(F)c(C(O)CCC[C@@H](C)[C@H]2CC[C@H]3[C@H]4[C@H](CC[C@]23C)[C@@]2(C)CC[C@H](O)[C@H](O)[C@@H]2CC4(F)F)c(F)c1` (single isomer, unassigned) [Compound 205, (1R,3aS,3bS,5aR,6R,7S,9aR,9bS,11aR)-1-[(2R,6R)-6-(2,6-difluoro-4-methoxyphenyl)-6-hydroxyhexan-2-yl]-4,4-difluoro-9a,11a-dimethylhexadecahydro-1H-cyclopenta[1,2-a]phenanthrene-6,7-diol or (1R,3aS,3bS,5aR,6R,7S,9aR,9bS,11aR)-1-[(2R,6S)-6-(2,6-difluoro-4-methoxyphenyl)-6-hydroxyhexan-2-yl]-4,4-difluoro-9a,11a-dimethylhexadecahydro-1H-cyclopenta[1,2-a]phenanthrene-6,7-diol] was 0.107 µM; that for `COc1cc(F)nc(OC)c1C(O)CCC[C@@H](C)[C@H]1CC[C@H]2[C@H]3[C@H](CC[C@]12C)[C@@]1(C)CC[C@H](O)[C@H](O)[C@@H]1CC3(F)F` (stereo partly drawn) [Compound 214, (1R,3aS,3bS,5aR,6R,7S,9aR,9bS,11aR)-4,4-difluoro-1-[(2R)-6-(6-fluoro-2,4-dimethoxypyridin-3-yl)-6-hydroxyhexan-2-yl]-9a,11a-dimethylhexadecahydro-1H-cyclopenta[1,2-a]phenanthrene-6,7-diol] was 0.183 µM.
Same read-out and setting: the value for `C[C@H](CCC[C@H](O)c1cc2ccccc2o1)[C@H]1CC[C@H]2[C@H]3[C@H](CC[C@]12C)[C@@]1(C)CC[C@H](O)[C@H](O)[C@@H]1CC3(F)F` [Compound 316, (1R,3aS,3bS,5aR,6R,7S,9aR,9bS,11aR)-1-[(2R,6S)-6-(1-benzofuran-2-yl)-6-hydroxyhexan-2-yl]-4,4-difluoro-9a,11a-dimethylhexadecahydro-1H-cyclopenta[1,2-a]phenanthrene-6,7-diol] was 0.145 µM; that for `C[C@H](CCCC(O)c1cccc2cn[nH]c12)[C@H]1CC[C@H]2C3=C(F)C[C@H]4[C@@H](O)[C@@H](O)CC[C@]4(C)[C@H]3CC[C@]12C` (stereo partly drawn) [Compound 270, (1R,3aR,5aR,6R,7S,9aR,9bR,11aR)-4-fluoro-1-[(2R)-6-hydroxy-6-(1H-indazol-7-yl)hexan-2-yl]-9a,11a-dimethyl-2,3,3a,5,5a,6,7,8,9,9a,9b,10,11,11a-tetradecahydro-1H-cyclopenta[1,2-a]phenanthrene-6,7-diol] was 0.259 µM; that for `C[C@H](CCC[C@H](O)c1cccc2cnn(C)c12)[C@H]1CC[C@H]2C3=C(F)C[C@H]4[C@@H](O)[C@@H](O)CC[C@]4(C)[C@H]3CC[C@]12C` (single isomer, unassigned) [Compound 245] was 0.159 µM.
For the compound `COc1cc(F)cc(F)c1[C@@H](O)CCC[C@@H](C)[C@H]1CC[C@H]2C3=C(F)C[C@H]4[C@@H](O)[C@@H](O)CC[C@]4(C)[C@H]3CC[C@]12C` (single isomer, unassigned) [Compound 202], the concentration for half-maximal inhibition (IC50) amounted to 0.411 µM.

Still in this assay, the particulars now being: Huh-7/SRE-luc cells, sterol-deficient medium, 16 hours, 0.01-10 µM.
On to `COc1cc(F)cc(OC)c1C(O)CCC[C@@H](C)[C@H]1CC[C@H]2[C@H]3[C@H](CC[C@]12C)[C@@]1(C)CC[C@H](O)[C@H](O)[C@@H]1CC3(F)F` (single isomer, unassigned) [Compound 225, (1R,3aS,3bS,5aR,6R,7S,9aR,9bS,11aR)-4,4-difluoro-1-[(2R,6R)-6-(4-fluoro-2,6-dimethoxyphenyl)-6-hydroxyhexan-2-yl]-9a,11a-dimethylhexadecahydro-1H-cyclopenta[1,2-a]phenanthrene-6,7-diol or (1R,3aS,3bS,5aR,6R,7S,9aR,9bS,11aR)-4,4-difluoro-1-[(2R,6S)-6-(4-fluoro-2,6-dimethoxyphenyl)-6-hydroxyhexan-2-yl]-9a,11a-dimethylhexadecahydro-1H-cyclopenta[1,2-a]phenanthrene-6,7-diol], for which the IC50 was 0.175 µM.
Still for that read-out and setting: for `C[C@H](CCCC(O)c1ccc(F)nc1F)[C@H]1CC[C@H]2[C@H]3[C@H](CC[C@]12C)[C@@]1(C)CC[C@H](O)[C@H](O)[C@@H]1CC3(F)F` (single isomer, unassigned) [Compound 226, (1R,3aS,3bS,5aR,6R,7S,9aR,9bS,11aR)-1-[(2R,6S)-6-(2,6-difluoropyridin-3-yl)-6-hydroxyhexan-2-yl]-4,4-difluoro-9a,11a-dimethylhexadecahydro-1H-cyclopenta[1,2-a]phenanthrene-6,7-diol or (1R,3aS,3bS,5aR,6R,7S,9aR,9bS,11aR)-1-[(2R,6R)-6-(2,6-difluoropyridin-3-yl)-6-hydroxyhexan-2-yl]-4,4-difluoro-9a,11a-dimethylhexadecahydro-1H-cyclopenta[1,2-a]phenanthrene-6,7-diol] the value was 0.1 µM; for `C[C@H](CCCC(O)c1cccc2cn[nH]c12)[C@H]1CC[C@H]2[C@H]3[C@H](CC[C@]12C)[C@@]1(C)CC[C@H](O)[C@H](O)[C@@H]1CC3(F)F` (single isomer, unassigned) [Compound 269, (1R,3aS,3bS,5aR,6R,7S,9aR,9bS,11aR)-4,4-difluoro-1-[(2R,6R)-6-hydroxy-6-(1H-indazol-7-yl)hexan-2-yl]-9a,11a-dimethylhexadecahydro-1H-cyclopenta[1,2-a]phenanthrene-6,7-diol or (1R,3aS,3bS,5aR,6R,7S,9aR,9bS,11aR)-4,4-difluoro-1-[(2R,6S)-6-hydroxy-6-(1H-indazol-7-yl)hexan-2-yl]-9a,11a-dimethylhexadecahydro-1H-cyclopenta[1,2-a]phenanthrene-6,7-diol], 0.8 µM.

The values above are taken from EP4752152A1, “STEROID COMPOUND, AND PREPARATION METHOD THEREFOR AND USE THEREOF” (Cholesgen (Shanghai) Co.Ltd., priority 2023, dated 2025).
